Data from ChEMBL document CHEMBL1133203, “Synthesis of L-(+)-3-(3-hydroxy-4-pivaloyloxybenzyl)-2,5-diketomorpholine as potential prodrug of L-dopa” (Bioorg Med Chem Lett, 2000).
≈ marks a conversion by molar mass, not a printed value.

How the values were obtained:
[1] = Half-life in chemical and enzymatic hydrolysis, in 80% rat plasma; format: ADME
[2] = Rate constant in chemical and enzymatic hydrolysis to form another compound (8)*, in 80% human plasma (experiment 2); format: ADME, cell-free
[3] = Half-life in chemical and enzymatic hydrolysis, in buffer at pH 7.4; format: ADME
[4] = Aqueous solubility was evaluated; format: physicochemical; conditions: buffer
[5] = Rate constant in chemical and enzymatic hydrolysis to form another compound (8)*, in 80% human plasma (experiment 1); format: ADME, cell-free
[6] = Half-life in chemical and enzymatic hydrolysis, in buffer at pH 1.3; format: ADME
[7] = Rate constant in chemical and enzymatic hydrolysis, in buffer at pH 1.3; format: ADME
[8] = Rate constant in chemical and enzymatic hydrolysis, in buffer at pH 7.4; format: ADME
Rattus norvegicus = species on record: Rattus norvegicus; test: Rate constant in chemical and enzymatic hydrolysis, in 80% rat plasma; format: ADME
[9] = Partition coefficient is determined in octanol/buffer solution at pH 7.4; format: physicochemical
[10] = Rate constant in chemical and enzymatic hydrolysis to form L-DOPA, in 80% human plasma; format: ADME, cell-free

Row | half-life [1] | K obs [2] | half-life [3] | solubility [4] | K obs [5] | half-life [6] | K obs [7] | K obs [8] | K obs (Rattus norvegicus) | logD [9] | K obs [10] | Structure (SMILES)
1 | 2.7 min | 0.019 min⁻¹ | 1.55 h | 50 µg/mL (≈ 156 µM) | 0.019 min⁻¹ | 52.3 h | 0.00022 min⁻¹ | 0.0075 min⁻¹ | 0.29 min⁻¹ | 2.15 | – | CC(C)(C)C(=O)Oc1ccc(C[C@@H]2NC(=O)COC2=O)cc1O
2 | – | – | – | – | – | – | – | – | – | – | 0.0047 min⁻¹ | O=C1COC(=O)[C@H](Cc2ccc(O)c(O)c2)N1
